Data published in patent publication US7723328B2, “Methods of facilitating cell survival using neurotrophin mimetics” (The University of North Carolina at Chapel Hill, priority 2005, dated 2010).
“Also recorded” adds a separate entry of the source.

Legend:
[1] = molecular target: T1, p75^NTR-expressing 3T3 cells (Homo sapiens, UniProt P08138); test: p75NTR antibody (Ab 9651) competition on 3T3 cells, western blot; format: binding; details: 100 nM compound, 90 min, 4° C.
T1 construct: host or cells: NIH3T3 fibroblasts
T1 sequence (P08138 29-427): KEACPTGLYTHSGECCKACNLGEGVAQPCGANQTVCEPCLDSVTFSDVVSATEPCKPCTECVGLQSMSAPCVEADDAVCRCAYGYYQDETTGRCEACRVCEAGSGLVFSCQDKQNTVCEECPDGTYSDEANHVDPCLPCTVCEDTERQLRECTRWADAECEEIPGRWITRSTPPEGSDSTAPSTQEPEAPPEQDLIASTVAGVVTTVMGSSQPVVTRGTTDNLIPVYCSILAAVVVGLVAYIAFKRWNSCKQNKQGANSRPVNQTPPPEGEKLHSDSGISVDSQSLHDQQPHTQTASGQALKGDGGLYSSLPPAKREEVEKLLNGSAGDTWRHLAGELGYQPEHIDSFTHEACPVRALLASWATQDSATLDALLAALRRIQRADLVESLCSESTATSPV
Experimental: NIH3T3 fibroblasts expressing either null vector or p75^NTR (Huang, C. S. et al. (1999) J Biol Chem 274, 36707-36714) were obtained from Dr. William Mobley (Stanford University, Calif., United States of America). Cells were grown in monolayers, harvested in PBS with 2 mM EDTA, pelleted, and resuspended in ice-cold DMEM HEPES with 1 mg/ml BSA. 6-9×10^6 cells from one confluent 6-well plate were used for each experimental point.
For binding analysis, p75^NTR antibody (1:100) was allowed to bind in the presence or absence of 100 nM p75-binding compounds for 90 minutes at 4° C. with gentle rotation, followed by four washes in PBS. The final cell pellet was resuspended in lysis buffer.
Western blots were performed as described above. To detect the presence of p75^NTR antibody, blots were probed with horseradish peroxidase-linked goat anti-rabbit IgG obtained from Amersham/Pharmacia Biotech (Piscataway, N.J., United States of America). Signals were detected by the ECL chemiluminescence system obtained from Amersham Biosciences (Piscataway, […]., United States of America). To control for variation in protein loading, the blot was stripped and reprobed with β-actin monoclonal antibody obtained from Sigma (St. Louis, Mo., United States of America).

[2] = molecular target: T2, p75^NTR (Homo sapiens, UniProt P08138); test: proNGF binding to p75NTR by ELISA; details: 100 ng/ml proNGF
T2 construct: purchased R&D Systems
T2 sequence (P08138 with tags, fused parts or gaps limits assumed): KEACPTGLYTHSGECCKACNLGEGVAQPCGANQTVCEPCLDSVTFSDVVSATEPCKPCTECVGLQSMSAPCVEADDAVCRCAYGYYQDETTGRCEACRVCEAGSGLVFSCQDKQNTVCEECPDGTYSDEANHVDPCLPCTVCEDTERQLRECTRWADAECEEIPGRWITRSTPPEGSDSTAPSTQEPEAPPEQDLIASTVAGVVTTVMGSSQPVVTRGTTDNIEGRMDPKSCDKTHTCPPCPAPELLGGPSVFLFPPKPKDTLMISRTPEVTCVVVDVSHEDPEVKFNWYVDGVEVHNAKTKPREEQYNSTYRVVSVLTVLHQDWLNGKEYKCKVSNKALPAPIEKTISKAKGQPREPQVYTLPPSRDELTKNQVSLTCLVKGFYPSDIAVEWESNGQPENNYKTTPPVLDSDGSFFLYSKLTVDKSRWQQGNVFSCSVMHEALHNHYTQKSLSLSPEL
Experimental: Briefly, 96-well plates were incubated with 0.1 pmol (at 1 nM) of p75/Fc or TrkA/Fc recombinant protein obtained from R&D System (Minneapolis, Minn., United States of America) overnight at 4° C. followed by incubation with blocking buffer for 1 hour at room temperature. […] Plates were then washed five times with Tris-buffered saline (TBS) containing 0.05% Tween-20 and incubated with anti-NGF rabbit polyclonal antibody overnight at 4° C. Following five washes with TBS, wells were incubated for 2.5 hours at room temperature with anti-rabbit IgG HRP conjugate and washed five times. 3,3′,5,5′-tetramethyl-benzidine substrate was added and the optical density measured at 450 nm.

[3] = test system: AKT; test: AKT activation western blot in hippocampal cultures; format: cell-based, mouse; details: 20 nM, relative to NGF
Experimental: For assays of Trk, AKT, NFκB, and ERK activation, hippocampal neurons derived from E16-17 mice were cultured in poly-L-lysine coated six-well plates (Corning, Inc., Corning, N.Y., United States of America) in DMEM containing 10% FBS, followed by incubation in serum-free DMEM for 2 hours before addition of neurotrophins or compounds. At the indicated time points, neurons were harvested in lysis buffer consisting of: 20 mM Tris, pH 8.0, 137 mM NaCl, 1% Igepal CA-630, 10% glycerol, 1 mM PMSF, 10 μg/ml aprotinin, 1 μg/ml leupeptin, 500 μM orthovanadate (Zhou, J., Valletta, J. S., Grimes, M. L., Mobley, W. C. (1995) J Neurochem 65, 1146-1156).
Lysates were centrifuged, the supernatant collected, and protein concentrations determined using the BCA Protein Assay Reagent obtained from Pierce (Rockford, Ill., United States of America). Western blots were performed as described previously (Yang, T. et al. (2003) J Neurosci 23, 3353-3363). Western blot signals were detected using the ECL Chemiluminescence System obtained by Amersham (Piscataway, N.J., United States of America) (Yang, T. et al. (2003) J Neurosci 23, 3353-3363).

[4] = test system: E17 hippocampal neurons; test: Aβ-induced death of hippocampal neurons; format: cell-based; details: Aβ1-42 10 μM; NGF at 100 pg/ml
Experimental: Using previously well established protocols, Aβ was preincubated for 3 days in water to allow formation of oligomers. E17 hippocampal neurons were incubated for 5 days to allow for maturation prior to addition of Aβ with test compounds.

[5] = test system: p75^NTR−/− cells; test: Survival of p75NTR+/+ versus p75NTR-/- hippocampal neurons; format: cell-based, mouse; details: neurotrophins 1.8 nM, compounds 5 nM
Experimental: (§1) Hippocampal neurons were prepared from E16-17 mouse embryos as previously described (Yang. T. et al. (2003) J Neurosci 23, 3353-3363). […] For studies employing p75^NTR+/+ and p75^NTR−/− neurons, mice carrying a mutation in exon 3 of the p75^NTR gene (Lee, K. F. et al. (1992) Cell 69, 737-749) were bred onto a B6 congenic background (>10 B6 backcrosses).
(§2) After 48 hours in culture, cell survival was assessed as previously described (Longo, F. M., Manthorpe. M., Xie. Y. M., Varon, S. (1997) J Neurosci Res 48, 1-17) using a combination of standard morphological criteria along with visual determination of whether a given cell converted MTT to its blue formazan product. The number of surviving neurons was determined by counting the total number of cells in each well that were both morphologically intact and filed with blue product (Longo F. M., Manthorpe. M., Xie, Y. M., Varon, S. (1997) J Neurosci Res 48, 1-17). For each neurotrophin or compound concentration, duplicate wells were counted and the resulting values averaged. Activity of each compound was confirmed by blinded counts. Counts were normalized to survival achieved with 25 ng/ml BDNF or to baseline survival. Fitting of dose-responsive curves was performed with Sigmaplot obtained from SYSTAT Software Inc. (Richmond, Calif., United States of America).
(§3) For all studies applying signaling inhibitors, p75^NTR antibodies or p75^NTR−/− neurons, survival was assessed at 48 hours.

[6] = test system: hippocampal neurons; test: Hippocampal neuron survival with p75NTR antisera (antibody inhibition); format: cell-based, mouse; details: antiserum 1:100, 48 h
Experimental: as §1, §2, §3

[7] = test system: cortical and septal neurons; test: Aβ-induced degeneration of cortical and septal neurons; format: cell-based

displacement of anti-p75NTR Ab 9651 [1]: significantly displaced | proNGF ELISA signal versus proNGF alone ([2]; P<0.01): significantly less than proNGF alone | decrement of proNGF binding to p75NTR ([2]; at the highest concentration (range 1500 nM to 10,000 nM)): approximately 30%
Compound: CCC(C)C(N)C(=O)NCCN1CCOCC1 (stereo not drawn) [Compound 4]
onset of AKT activation [3]: slower than that of NGF | protection against Aβ1-42-induced death [4]: entirely block | effect of p75NTR-deficiency on promotion of neuron survival by the substance [5]: completely inhibits | effect of Ab 9651 on promotion of neuron survival by the substance [6]: completely blocked; also recorded: completely inhibits | survival versus CM in the presence of Ab 9651 [6]: not significant | block of Aβ-induced degeneration of cortical and septal neurons [7]: block Aβ-induced degeneration of cortical and septal neurons
